Test results from ChEMBL document CHEMBL1135665, “Synthesis and biological evaluation of 14-alkoxymorphinans. 17. Highly delta opioid receptor selective 14-alkoxy-substituted indolo- and benzofuromorphinans” (J Med Chem, 2002).

Legend:
[1] = molecular target: T1, Kappa-type opioid receptor (Cavia porcellus, UniProt P41144); assay: Binding affinity at kappa opioid receptor 1 in guinea pig brain by [3H]U-69593 displacement.
[2] = molecular target: T2, Delta-type opioid receptor (Rattus norvegicus, UniProt P33533); assay: Binding affinity at delta opioid receptor 1 in rat brain membrane by [3H]DADLE displacement.; type: cell membranes
Mu-type opioid receptor [3] = molecular target: Mu-type opioid receptor (Rattus norvegicus, UniProt P33535); assay: Binding affinity at mu opioid receptor 1 in rat brain membrane by [3H]DAMGO displacement.; type: cell membranes
Rattus norvegicus = organism: Rattus norvegicus; assay: Selectivity ratio (Ki value towards kappa receptor compared to that of delta receptor).
[4] = molecular target: Opioid receptors; mu & delta (Rattus norvegicus) (UniProt P33533+P33535); assay: Selectivity ratio (Ki value towards mu receptor compared to that of delta receptor).; type: protein assay
Mu-type opioid receptor [5] = molecular target: Mu-type opioid receptor (Cavia porcellus, UniProt P97266); assay: The ability of compound to inhibit [35S][…] binding in guinea pig caudate stimulated by DAMGO (Opioid receptor mu 1) antagonist; type: functional
[6] = molecular target: T1, Kappa-type opioid receptor; assay: The ability of compound to inhibit [35S][…] binding in guinea pig caudate stimulated by U69,593 (Opioid receptor kappa 1) antagonist; type: functional
[7] = molecular target: T2, Delta-type opioid receptor; assay: Opioid receptor delta 1 binding affinity was determined by inhibition of binding of [3H]DADLE to rat brain membrane

Sequence of Mu-type opioid receptor (Rattus norvegicus, UniProt P33535) (P33535 whole entry): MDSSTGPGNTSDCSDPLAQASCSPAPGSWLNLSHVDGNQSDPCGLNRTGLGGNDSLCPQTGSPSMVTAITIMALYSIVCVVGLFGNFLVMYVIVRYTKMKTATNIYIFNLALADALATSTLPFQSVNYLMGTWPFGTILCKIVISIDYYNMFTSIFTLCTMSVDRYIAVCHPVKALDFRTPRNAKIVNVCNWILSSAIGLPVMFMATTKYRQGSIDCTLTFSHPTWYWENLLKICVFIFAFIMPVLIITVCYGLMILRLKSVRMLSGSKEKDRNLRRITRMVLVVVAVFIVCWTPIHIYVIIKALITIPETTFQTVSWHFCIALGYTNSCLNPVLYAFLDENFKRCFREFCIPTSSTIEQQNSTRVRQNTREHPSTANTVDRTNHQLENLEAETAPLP
Sequence of Mu-type opioid receptor (Cavia porcellus, UniProt P97266) (P97266 whole entry): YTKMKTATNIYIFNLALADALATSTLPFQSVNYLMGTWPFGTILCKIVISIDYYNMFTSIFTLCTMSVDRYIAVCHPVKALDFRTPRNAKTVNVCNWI
T1 sequence (P41144 whole entry): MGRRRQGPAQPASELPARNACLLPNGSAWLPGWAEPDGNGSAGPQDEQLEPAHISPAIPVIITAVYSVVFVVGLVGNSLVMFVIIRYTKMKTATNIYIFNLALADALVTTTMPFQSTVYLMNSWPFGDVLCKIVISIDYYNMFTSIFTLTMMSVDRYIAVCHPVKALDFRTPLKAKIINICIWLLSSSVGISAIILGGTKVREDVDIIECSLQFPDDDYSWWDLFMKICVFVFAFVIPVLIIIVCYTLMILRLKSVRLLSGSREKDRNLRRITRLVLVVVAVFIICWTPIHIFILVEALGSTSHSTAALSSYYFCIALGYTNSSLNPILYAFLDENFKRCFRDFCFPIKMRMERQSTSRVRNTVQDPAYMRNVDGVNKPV
Sequence of Opioid receptors; mu & delta (Rattus norvegicus) (P33533 whole entry, looked up): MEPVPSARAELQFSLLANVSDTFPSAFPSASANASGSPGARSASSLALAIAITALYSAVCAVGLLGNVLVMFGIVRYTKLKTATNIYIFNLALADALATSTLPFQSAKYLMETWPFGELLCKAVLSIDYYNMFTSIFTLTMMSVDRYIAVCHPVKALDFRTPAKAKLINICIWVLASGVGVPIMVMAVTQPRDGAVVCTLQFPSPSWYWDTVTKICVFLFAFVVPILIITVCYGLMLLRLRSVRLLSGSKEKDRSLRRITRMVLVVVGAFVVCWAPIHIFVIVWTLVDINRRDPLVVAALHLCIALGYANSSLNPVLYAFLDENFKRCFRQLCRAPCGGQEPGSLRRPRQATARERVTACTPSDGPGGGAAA
Sequence of Opioid receptors; mu & delta (Rattus norvegicus) (P33535 whole entry, looked up): as the sequence (P33535 whole entry) above
T2 sequence (P33533 whole entry): as the sequence (P33533 whole entry, looked up) above

SMILES	Ki [1]	Ki [2]	Ki (Mu-type opioid receptor [3])	Selectivity (Rattus norvegicus)	Selectivity [4]	Ki (Mu-type opioid receptor [5])	Ki [6]	Ki [7]
Oc1ccc2c3c1O[C@H]1c4[nH]c5ccccc5c4C[C@@]4(O)[C@@H](C2)N(CC2CC2)CC[C@]314 [NALTRINDOLE]	15.8 nM	0.81 nM	–	–	–	–	–	–
CCCO[C@@]12Cc3c(n(CCC)c4ccccc34)[C@@H]3Oc4c(O)ccc5c4[C@@]31CCN(CC1CC1)[C@@H]2C5	3.1 nM	1.28 nM	14.8 nM	2.4	12	–	–	–
CCCO[C@@]12Cc3c([nH]c4ccccc34)[C@]3(C)Oc4c(O)ccc5c4[C@@]31CCN(C)[C@@H]2C5	556 nM	5.3 nM	30 nM	105	5.7	–	–	–
CCO[C@@]12Cc3c([nH]c4ccccc34)[C@]3(C)Oc4c(O)ccc5c4[C@@]31CCN(C)[C@@H]2C5	725 nM	3.9 nM	515 nM	186	132	–	–	–
C=CCN1CC[C@]23c4c5ccc(O)c4O[C@H]2c2oc4ccccc4c2C[C@@]3(OCC)[C@H]1C5	68 nM	1.2 nM	22.8 nM	57	19	–	–	–
CCCN1CC[C@]23c4c5ccc(O)c4O[C@H]2c2c(c4ccccc4n2C)C[C@@]3(OC)[C@H]1C5	115 nM	11.5 nM	106 nM	10	9.2	–	–	–
C=CCN1CC[C@]23c4c5ccc(O)c4O[C@H]2c2c(c4ccccc4n2Cc2ccccc2Cl)C[C@@]3(OCc2ccccc2Cl)[C@H]1C5	721000 nM	151 nM	1230 nM	4800	8.2	–	–	–
CCO[C@@]12Cc3c([nH]c4ccccc34)[C@]3(C)Oc4c(O)ccc5c4C31CCN(CC1CC1)[C@@H]2C5	134 nM	4.4 nM	340 nM	30	77	> 10000 nM	> 10000 nM	–
CC(C)CCO[C@@]12Cc3c([nH]c4ccccc34)[C@]3(C)Oc4c(O)ccc5c4[C@@]31CCN(C)[C@@H]2C5	1260 nM	12.8 nM	238 nM	99	19	–	–	–
CCO[C@@]12Cc3c(oc4ccccc34)[C@@H]3Oc4c(O)ccc5c4[C@@]31CCN(CC1CC1)[C@@H]2C5	94 nM	1.18 nM	185 nM	80	157	> 10000 nM	> 10000 nM	–
C=CCN1CC[C@]23c4c5ccc(O)c4O[C@H]2c2[nH]c4ccccc4c2C[C@@]3(OC)[C@H]1C5	233 nM	3.8 nM	869 nM	61	229	–	–	–
CO[C@@]12Cc3c([nH]c4ccccc34)[C@]3(C)Oc4c(O)ccc5c4[C@@]31CCN(C)[C@@H]2C5	1530 nM	3.95 nM	58 nM	387	15	–	–	–
CCO[C@@]12Cc3c([nH]c4ccccc34)[C@]3(C)Oc4c(O)ccc5c4[C@@]31CCN(CC1CCC1)[C@@H]2C5	378 nM	12.6 nM	409 nM	30	32	–	–	–
C=CCN1CC[C@]23c4c5ccc(O)c4O[C@H]2c2[nH]c4ccccc4c2C[C@@]3(OCC)[C@H]1C5	349 nM	2.6 nM	1370 nM	134	526	> 10000 nM	> 10000 nM	–
CCCO[C@@]12Cc3c([nH]c4ccccc34)[C@]3(C)Oc4c(O)ccc5c4[C@@]31CCN(CC1CC1)[C@@H]2C5	504 nM	5.3 nM	555 nM	95	105	–	–	–
C=CCN1CC[C@]23c4c5ccc(O)c4O[C@H]2c2c(c4ccccc4n2C)C[C@@]3(OC)[C@H]1C5	149 nM	1.97 nM	731 nM	–	–	–	–	–
CN1CC[C@]23c4c5ccc(O)c4O[C@H]2c2[nH]c4ccccc4c2C[C@@]3(O)[C@H]1C5 [OXYMORPHINDOLE]	395 nM	–	171 nM	198	86	–	–	2 nM
CO[C@@]12Cc3c([nH]c4ccccc34)[C@@H]3Oc4c(O)ccc5c4[C@@]31CCN(CC1CCCCC1)[C@@H]2C5	3250 nM	370 nM	14000 nM	8.8	38	–	–	–
C=CCO[C@@]12Cc3c(n(CC=C)c4ccccc34)[C@@H]3Oc4c(O)ccc5c4[C@@]31CCN(CC=C)[C@@H]2C5	763 nM	7.3 nM	1000 nM	105	137	–	–	–
